Each structure is given as a SMILES string. A value given as a limit tells only on which side of the number the result lay.

`COc1ccc2c3c(oc2c1)CC(CC1CCN(Cc2ccccc2)CC1)C3=O` (configuration not stated): the melting point was in the range of 137 to 138 °C.
Then `O=c1c2c(N3CCNCC3)cc(Cl)cc2n(Cc2ccccc2)c(=O)n1Cc1ccccc1F`, with 98 to 109 °C.
The figure for `O=c1oc(-c2ccc(F)cc2)nc2cccc(F)c12` is 189 to 193 °C; for `O=C(O)CN1C(=O)c2cccc([N+](=O)[O-])c2C1=O` it is 200 to 202 °C.
`COc1cc(Nc2nccc(Nc3ccc(OCC(=O)OC(C)(C)C)cc3)n2)cc(OC)c1OC` came in with a melting point of 139 °C.
Then `CN(C)C=CC(=O)c1ccc(OCC(O)CN2CCN(c3ccc(Cl)cc3)CC2)cc1` (configuration not stated), with 185 °C; and `CSc1nc(-c2ccc(C(F)(F)F)cc2)c2cc(C)sc2n1`, with 113 °C; and `Cc1noc(C)c1Cn1cc(N2C(=O)CN(CCc3cccc(F)c3)C2=O)cn1`, with 110 to 111 °C.
As to `CS(=O)(=O)c1ccc(-c2cccn2-c2ccc(Cl)c(Cl)c2)cc1`, the melting point was 139 to 142 °C.
Then `O=C(c1ccc(C2CCCCC2)cc1)[C@H]1C[C@H]1C(=O)O` (relative stereo), with 162 to 163 °C; and `Cc1cc(I)ccc1Nc1c(C2=NC(C)(C)CO2)ccc(F)c1F`, with 104 °C; and `NC(=O)c1cn(CCBr)nc1[N+](=O)[O-]`, with 135 to 137 °C.
Then `COC(=O)C(=Cc1c[nH]c2cc(C)ccc12)NC(C)=O`, with 182 to 183 °C.
For the molecule `CC(C)c1n[nH]c2c(NCc3ccccc3O)ncnc12`, the melting point lay in the range of 214 to 217 °C.
Then `COc1ccc(Cl)cc1CC1CNC(=O)CN(C(=O)Nc2cccc(NC(C)=O)c2)C1=O` (configuration not stated), with 130 to 131 °C; and `CN1CCN(C(=O)c2cc(Oc3ccc4c(c3)CCN4C(=O)Nc3cccc(C(F)(F)F)c3)ncn2)CC1`, with 203 to 204 °C.
The figure for `CC1(C)OC(=O)Nc2ncc(-c3cccc(Cl)c3)cc21` is 214 to 215 °C; for `CC(=O)Nc1ccc2ccccc2c1-c1c(P(c2ccccc2)c2ccccc2)ccc2ccccc12` it is 105 °C; for `COC(=O)c1cc(N(C)C)c(N(C)C)c(N(C)C)c1` it is 61 to 63 °C.
Then `CC1SC(c2cccnc2)N(c2ccccc2F)C1=O` (configuration not stated), with 112 °C.
Molecule `Cc1cc(S(C)(=O)=O)ccc1-n1nc(C(F)(F)F)cc1-c1ccc(-c2ccco2)cc1` came in with a melting point of 205 °C.
Consider `CCN(C)c1cc(OC)c(C(=O)NC2CCN(Cc3ccccc3)C2)cc1Cl` (configuration not stated), for which the melting point fell in the range of 76 to 77 °C.
Molecule `CCOC(=O)c1cc2c(C)c(-c3cccc(Cl)c3)c(=O)oc2nc1C(=O)OCC` came in with a melting point of 170 to 172 °C.
The figure for `CCCCNc1ccc(-c2cc3ccccc3o2)cc1` is 113 to 115 °C; for `CC1(C)CC(=C(c2ccc(O)cc2)c2ccc(-c3cccc(CO)c3)cc2)CC(C)(C)C1` it is 197 to 198 °C.
In turn, `Cc1nc2c(c(=O)[nH]1)-c1cc(S(=O)(=O)Nc3ccc(F)cc3)ccc1CC2` had a melting point of more than 260 °C.
The figure for `Sc1ccc2c(c1)Sc1ccc(Cl)cc1N2` is 230 to 232 °C; for `CC(C)(C)OC(=O)Nn1ccc2ccccc21` it is 112 to 116 °C.
For the molecule `O=[N+]([O-])c1ccc(C2OCCO2)cc1`, the melting point is 88 to 92 °C.
The figure for `CN(CCOc1ccc(C=C2SC(=O)NC2=O)cc1)c1nccs1` is 212 °C; for `Clc1cc2c(-c3ccccc3)coc2c2ccccc12` it is 66 to 69 °C.
For the molecule `CC(=O)NCCc1ccc(CC(=O)O)cc1`, the melting point was 117 to 118 °C.
On to `CC(C)(C)NC(=S)Nc1cc(F)cc(Cl)c1`, for which the melting point was in the range of 135 to 137 °C.
Then `CN1Cc2c(-c3nc(C4CC4)no3)ncn2-c2cccc(Br)c2C1=O`, with 187 to 189 °C; and `CCOC(=O)C(O)=Cc1ncc(Cc2ccc(F)cc2)s1`, with 160 to 162 °C.
The figure for `CCN(CC)CCOC(=O)CCc1cc(S(C)(=O)=O)cc(-c2nc(=O)c3ccc(Cl)cc3s2)n1` is 150 to 152 °C; for `CC(=O)NC[C@H]1CN(c2ccc(N3CCC4(CC3)CC4(C#N)C#N)cc2)C(=O)O1` it is 172 to 174 °C; for `CCN(C)C(=O)C(Cc1ccc(C#N)cc1)NC(=O)C(Cc1ccc(OC)cc1)S(=O)(=O)Nc1ccc(Cl)c(Cl)c1` (configuration not stated) it is 192 °C.
The figure for `Cn1cc2c(C#CCO)cccc2n1` is 139 to 140 °C; for `CNc1nc(-c2cccnc2)nc(SC)c1C(=O)Nc1ccc(OC)cc1` it is 184 to 197 °C.
Regarding `O=C(NCc1ccc(F)cc1-n1cncn1)c1nc2n(c(=O)c1OCc1ccccc1)CCN2c1ccccc1`, the melting point fell in the range of 187 to 190 °C.
The figure for `COC(=S)c1nc(C)c(N)nc1N` is 158 to 160 °C; for `Cc1c(C(F)(F)F)cnn(-c2cc(OCC3CCCCC3)c(Cl)cc2F)c1=O` it is 90.2 °C.
Then `CC(=O)N1CCN(c2ccc(Nc3nccc(-c4sc(N(C)c5cccnc5)nc4C)n3)cc2)CC1`, with 205 to 206 °C; and `Cc1cc(-n2ccnc2)c2cccc(OCc3c(Cl)ccc(S(=O)(=O)N4CCC[C@H]4C(=O)NCC4CCN(CCC(=O)O)CC4)c3Cl)c2n1`, with 140 °C; and `CC1(C)CCC(C)(C)c2cc(NC(=O)c3ccc(CO)cc3)ccc21`, with 161 to 162 °C.
The figure for `O=C(O)c1ccc(S(=O)(=O)c2ccccc2)cc1` is 128 to 132 °C; for `O=c1ccc(-c2ccc(OC(F)(F)F)cc2)n[nH]1` it is 178 °C; for `CN=C(C)c1cc(Oc2ccc(C(F)(F)F)cc2Cl)ccc1[N+](=O)[O-]` it is 133 to 137 °C.
The molecule `CCN(CC)c1cc(=S)ss1` showed a melting point of 93 °C.
The figure for `CN(Cc1sc2c(=O)c(C(=O)NCc3ccc(Cl)cc3)cn(C)c2c1CO)CC(O)c1ccc(C#N)s1` (configuration not stated) is 188 to 190 °C; for `CSc1cc2n(c(=O)n1)C(c1ccccc1)N=C2` (configuration not stated) it is 198 to 199 °C; for `COC(=O)[C@H](Cc1ccc(N2C(=O)c3ccc(Br)cc3C2=O)cc1)NC(=O)OC(C)(C)C` it is 168 to 170 °C.
Then `COc1c(F)c(F)c(N)c2c(=O)c(C(=O)O)cn(Cc3ccccc3)c12`, with 208 to 210 °C.
The figure for `N#CN1c2ccccc2CC(=O)c2ccccc21` is 153 to 154 °C; for `Cc1ccc(S(=O)(=O)N2c3ccc(Cl)cc3C(O)(c3ccccc3Cl)C2C(=O)N(C)C)cc1` (configuration not stated) it is 220 to 221 °C.
`Cc1cc(=O)c(C(=O)O)c(C)n1C1CC(C)(C)NC(C)(C)C1` returned a melting point of 174 °C.
The figure for `COc1cc(/C=C/C(=O)CC(=O)Cc2ccccc2)ccc1O` is 106 °C.
The figure for `CC(C)(O)Cn1c(CO)nc2c(N)nc3cc(-c4ccc(F)c(F)c4)cnc3c21` is 256 to 258 °C; for `Cc1nc(C)c2cc(-c3c(Cl)cccc3Cl)c(N)nc2n1` it is 239 to 240 °C.
Then `OC1(c2ccccc2Cc2cc(F)ccc2F)CCN(Cc2ccccc2)CC1`, with 143 to 146 °C.
The molecule `CCOC(=O)C1=C(NC(=O)Nc2cc(C(=O)OC(C)C)c(Cl)cc2Cl)CCC1` yielded a melting point of 140 to 142 °C.
Then `Cc1cc(-c2ccc(O)cc2)cc2ccc(=O)[nH]c12`, with 270 to 274 °C.
The figure for `CCOCc1nc2c(N)nc3ccc(O)cc3c2n1CCCCN(C(N)=O)c1ccccc1` is 218 to 221 °C.
The figure for `CCCCCc1c(C(C)C)nc(C(C)C)c(C(C)CO)c1-c1ccc(F)cc1` (configuration not stated) is 77 to 79 °C; for `CSc1ccc(NC(=O)N(O)C(C)C)cc1` it is 150 °C; for `CC(=O)OC1CCC2(COS(=O)(=O)c3ccc(C)cc3)C(=CCC3C2CCC2(C)C(OC(C)=O)CCC32)C1` (configuration not stated) it is 135 to 137 °C.
As to `CSc1nc(-c2ccc(S(C)(=O)=O)cc2)n(-c2ccc(C)c(C)c2)c(=O)c1C#N`, the melting point lay in the range of 245 to 247 °C.
The figure for `COC(=O)c1ccc(CN2CCOc3cc4c(cc32)C(C)(C)CCC4(C)C)cc1` is 187 °C.
Molecule `O=C1C2=C(CCCC2)C(=O)N1c1ccc(F)cc1F` had a melting point of 73 to 74 °C.
The figure for `C1=C(c2ccccc2)SCCS1` is 54 to 55 °C.
`COc1cc(CCCN2CCc3cc(OC)c(OC)cc3C2)ccc1NC(=O)c1cccc2c(=O)c3cccc(C)c3[nH]c12` came in with a melting point of 174 °C.
Then `CN1CCN(C(=O)CCC(=O)c2ccc3[nH]c4ncc(Cl)cc4c3c2)CC1`, with 233 °C; and `Cn1cnc(N2CCc3ccccc3CC2)c(C#N)c1=O`, with 197 to 203 °C.
Then `N#Cc1c(N)cccc1Sc1cccc(N)c1`, with 99 to 100 °C.
Then `O=S(CCCCCOc1ccc(C2=C(c3ccc(O)cc3)CCCc3cc(O)ccc32)cc1)CCCC(F)(F)C(F)(F)F` (configuration not stated), with 165 to 168 °C; and `CC(C)c1[nH]nc(C(N)=O)c1[N+](=O)[O-]`, with 179 to 180 °C; and `COc1cc(CBr)ccc1OC(=O)c1ccccc1`, with 86 to 88 °C.
`CC(C)c1ccc2nc(C(F)(F)F)c(C(=O)O)c(O)c2c1` returned a melting point of 206 °C.
On to `O=C(NCC1CCCC1)c1ccc2cc[nH]c2c1`, for which the melting point is 148 to 150 °C.
The figure for `COC(=O)CCCc1cc2nc(Cl)ccc2n1S(=O)(=O)c1ccc2c(c1)OCCN2C` is 106 to 110 °C.
As to `COC(=O)c1cc(O)ccc1OC`, the melting point lay within 110 to 112 °C.
The figure for `CCCCN(C)c1nsc(N)c1C#N` is 87 to 89 °C; for `O=C(NCC(=O)N1c2ccccc2N(Cc2ccccc2)C(=O)[C@H]2CCC[C@H]21)c1ccncc1` (relative stereo) it is 196 to 199 °C; for `O=C1OC(=O)[C@@H](Cl)[C@@H]1Cl` (relative stereo) it is 90 to 92 °C.
The figure for `COC(=O)Nc1nc2cc(SCC3(C)CC3(Cl)Cl)ccc2[nH]1` (configuration not stated) is 175 to 178 °C; for `Cc1nc(NC(CO)C(C)SCc2ccccc2)c2nc(-c3ccccc3)cc-2[nH]1` (configuration not stated) it is 220 to 222 °C.

Usually melting point stands for the temperature of the solid-liquid transition.

(Values after a melting point compilation (Tetko et al.; mined from patent text by program, amines drawn as free bases though some values may be those of a salt).)
